Reference: BindingDB's records for doi:10.1002/cbic.201300770 (Northeast Ohio Medial University, 2014)

How the values were obtained:
[1] = biological target: T1, Amine oxidase [flavin-containing] B (Homo sapiens, UniProt P27338); test: MAO Enzyme Assays; conditions: pH 7.4
T1 sequence (P27338 whole entry): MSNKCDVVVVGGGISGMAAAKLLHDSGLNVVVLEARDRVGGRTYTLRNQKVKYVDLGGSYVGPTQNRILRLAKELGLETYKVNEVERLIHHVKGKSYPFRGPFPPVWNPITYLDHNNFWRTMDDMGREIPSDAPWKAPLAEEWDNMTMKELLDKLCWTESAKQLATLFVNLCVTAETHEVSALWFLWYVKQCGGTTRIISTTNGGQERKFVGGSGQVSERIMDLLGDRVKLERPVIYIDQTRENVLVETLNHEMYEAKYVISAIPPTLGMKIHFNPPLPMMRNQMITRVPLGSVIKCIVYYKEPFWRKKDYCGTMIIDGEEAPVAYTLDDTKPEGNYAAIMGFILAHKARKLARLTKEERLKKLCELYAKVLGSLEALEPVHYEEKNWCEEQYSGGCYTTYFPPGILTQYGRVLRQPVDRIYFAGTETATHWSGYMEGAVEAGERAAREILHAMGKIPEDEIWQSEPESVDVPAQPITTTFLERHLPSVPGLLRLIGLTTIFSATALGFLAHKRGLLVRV
Description: (§1) The buffer system used was a 0.1 M phosphate buffer (pH 7.4). The assays were carried out in a fluorescent 96-well plate. The final concentrations of MAO-A and MAO-B were 6 µg/mL and 15 µg/mL, respectively. The final concentration of kynuramine was 40 µM for MAO-A or 20 µM for MAO-B. The compounds (10 mM stock solution in DMSO; less than 2% (v/v) final concentration of DMSO in the assay) were incubated with MAO and the substrate for 20 min, and quenched with the addition of 2 N NaOH.

[2] = biological target: T2, Amine oxidase [flavin-containing] A (Homo sapiens, UniProt P21397); test: MAO Enzyme Assays; conditions: pH 7.4
T2 sequence (P21397 whole entry): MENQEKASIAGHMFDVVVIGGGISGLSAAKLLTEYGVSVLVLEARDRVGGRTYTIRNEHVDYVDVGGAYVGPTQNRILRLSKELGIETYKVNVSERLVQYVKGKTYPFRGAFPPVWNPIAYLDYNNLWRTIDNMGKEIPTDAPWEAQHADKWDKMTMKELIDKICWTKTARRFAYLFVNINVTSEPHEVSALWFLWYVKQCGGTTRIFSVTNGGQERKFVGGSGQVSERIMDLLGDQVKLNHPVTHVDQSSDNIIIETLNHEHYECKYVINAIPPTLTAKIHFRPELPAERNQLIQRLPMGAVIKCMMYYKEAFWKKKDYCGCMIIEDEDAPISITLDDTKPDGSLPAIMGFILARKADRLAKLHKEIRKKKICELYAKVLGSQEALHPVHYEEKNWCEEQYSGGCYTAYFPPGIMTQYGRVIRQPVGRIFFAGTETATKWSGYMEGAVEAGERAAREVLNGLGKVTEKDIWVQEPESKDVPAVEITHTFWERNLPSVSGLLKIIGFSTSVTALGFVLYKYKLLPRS
Description: as §1

Molecule `c1ccc(/N=N/c2ccccc2)cc1` [(E)-1,2-diphenyldiazene] has an IC50 [1] of 2.66 µM and an IC50 [2] of 22.9 µM.
In the case of `CN(C)c1ccc(/N=N/c2ccccc2)cc1` [(E)-N,N-dimethyl-4-(phenyldiazenyl)aniline], the IC50 [1] is reported as 0.0146 µM and the IC50 [2] is reported as 4.64 µM.
